Data from US9650395B2, “Antibacterial compounds and methods for use” (PTC Therapeutics, Inc., priority 2011, dated 2017).
Converted amounts (≈) assume the structure as drawn. Like-named read-outs stand apart in the source and are kept apart here.

Experiments:
[1] = test system: super sensitive Gram-negative Escherichia coli (E. coli) BAS849; assay: Antibacterial activity, microbroth dilution MIC, E. coli BAS849; type: cell-based; settings: Escherichia coli, read-out: MIC, BAS849
[2] = test system: control Gram-negative E. coli 25922 strain; assay: Antibacterial activity, microbroth dilution MIC, E. coli 25922; type: cell-based, Escherichia coli; settings: Escherichia coli; E. coli 25922, microbroth dilution; read-out: MIC, 25922
[3] = test system: Gram-positive Staphylococcus aureus (S. aureus) 29213; assay: Antibacterial activity, microbroth dilution MIC, S. aureus 29213; type: cell-based; settings: Staphylococcus aureus; S. aureus 29213, microbroth dilution; read-out: MIC, 29213
[4] = test system: quinolone resistant E. coli LZ3111; assay: Antibacterial activity, MIC, quinolone resistant E. coli LZ3111; type: cell-based, Escherichia coli; settings: Escherichia coli, read-out: MIC, LZ3111
Source text: The antibacterial activity from a microbroth dilution method may be presented as the minimum inhibitory concentration (MIC in […]). The MIC value is the lowest concentration of a drug which prevents macroscopically visible bacterial growth under test conditions.
Mutations in these regions are known to confer a high level resistance to the quinolone class of antibiotics.

[5] = E. coli BAS849, microbroth dilution

Row | Structure (SMILES) | MIC [1, 5] [µg/mL] | MIC [2] [µg/mL] | MIC [3] [µg/mL] | MIC [4] [µg/mL] | MIC [1] [µg/mL]
1 | CCc1c(-c2ccc(N3CCOCC3)cn2)[nH]c(=O)c(C(=O)O)c1O [Cpd 112, 5-ethyl-4-hydroxy-6-(5-morpholinopyridin-2-yl)-2-oxo-1,2-dihydropyridine-3-carboxylic acid] | < 1 | 12.5 to 150 (≈ 36.2 to 434 µM) | 12.5 to 150 (≈ 36.2 to 434 µM) | 12.5 to 150 (≈ 36.2 to 434 µM) | 
2 | CCc1c(-c2ccc(N3CCNCC3)cn2)[nH]c(=O)c(C(=O)O)c1O [Cpd 113, 5-ethyl-4-hydroxy-2-oxo-6-[5-(piperazin-1-yl)pyridin-2-yl]-1,2-dihydropyridine-3-carboxylic acid] | 3.5 to 12.5 (≈ 10.2 to 36.3 µM) | 3.5 to 12.5 (≈ 10.2 to 36.3 µM) | 12.5 to 150 (≈ 36.3 to 436 µM) | 12.5 to 150 (≈ 36.3 to 436 µM) | 
3 | CCc1cc(C(=O)O)c(=O)[nH]c1-c1ccc(N2C(=O)CCC2C)cc1 (centres unmarked) [Cpd 116, 5-ethyl-6-[4-(2-methyl-5-oxopyrrolidin-1-yl)phenyl]-2-oxo-1,2-dihydropyridine-3-carboxylic acid] | 12.5 to 150 (≈ 36.7 to 441 µM) | 12.5 to 150 (≈ 36.7 to 441 µM) | 12.5 to 150 (≈ 36.7 to 441 µM) | 12.5 to 150 (≈ 36.7 to 441 µM) | 
4 | CCc1cc(C(=O)O)c(=O)[nH]c1-c1ccc(N2CC[C@H](O)C2=O)cc1 [Cpd 117, 5-ethyl-6-{4-[(3S)-3-hydroxy-2-oxopyrrolidin-1-yl]phenyl}-2-oxo-1,2-dihydropyridine-3-carboxylic acid] | 12.5 to 150 (≈ 36.5 to 438 µM) | 12.5 to 150 (≈ 36.5 to 438 µM) | 12.5 to 150 (≈ 36.5 to 438 µM) | 12.5 to 150 (≈ 36.5 to 438 µM) | 
5 | CCc1cc(C(=O)O)c(=O)[nH]c1-c1ccc(N2C[C@@H](N)[C@@H](OC)C2)cc1.Cl [Cpd 135, 6-{4-[(3R,4S)-3-amino-4-methoxypyrrolidin-1-yl]phenyl}-5-ethyl-2-oxo-1,2-dihydropyridine-3-carboxylic acid hydrochloride] | < 1 | 12.5 to 150 | 12.5 to 150 | 12.5 to 150 | 
6 | CCc1cc(C(=O)O)c(=O)[nH]c1-c1ccc(N2C[C@@H](N)[C@@H](O)C2)cc1.O=C(O)C(F)(F)F [Cpd 136, 6-{4-[(3R,4S)-3-amino-4-hydroxypyrrolidin-1-yl]phenyl}-5-ethyl-2-oxo-1,2-dihydropyridine-3-carboxylic acid trifluoroacetate] |  | 12.5 to 150 | 12.5 to 150 | 12.5 to 150 | 1 to 3.5
7 | CCc1cc(C(=O)O)c(=O)[nH]c1-c1ccc(NCCN(C)C)cc1 [Cpd 159, 6-(4-{[2-(dimethylamino)ethyl]amino}phenyl)-5-ethyl-2-oxo-1,2-dihydropyridine-3-carboxylic acid] | 1 to 3.5 (≈ 3.04 to 10.6 µM) | 12.5 to 150 (≈ 37.9 to 455 µM) | 12.5 to 150 (≈ 37.9 to 455 µM) | 12.5 to 150 (≈ 37.9 to 455 µM) | 
8 | CC(C)c1cc(C(=O)O)c(=O)[nH]c1-c1ccc(N(C)CCN(C)C)cc1 [Cpd 165, 6-(4-{[2-(dimethylamino)ethyl](methyl)amino}phenyl)-2-oxo-5-(propan-2-yl)-1,2-dihydropyridine-3-carboxylic acid] | 1 to 3.5 (≈ 2.8 to 9.79 µM) | 12.5 to 150 (≈ 35 to 420 µM) | 12.5 to 150 (≈ 35 to 420 µM) | 12.5 to 150 (≈ 35 to 420 µM) | 
9 | CCc1cc(C(=O)O)c(=O)[nH]c1-c1ccc(N2CCC(C)(N)C2)cc1.O=C(O)C(F)(F)F (centres unmarked) [Cpd 166, 6-[4-(3-amino-3-methylpyrrolidin-1-yl)phenyl]-5-ethyl-2-oxo-1,2-dihydropyridine-3-carboxylic acid trifluoroacetate] |  | 3.5 to 12.5 | 12.5 to 150 | 12.5 to 150 | < 1
10 | CCc1cc(C(=O)O)c(=O)[nH]c1-c1ccc(N2CC(NC(=O)N(C)CC(=O)O)C2)cc1 [Cpd 167, 6-[4-(3-{[(carboxymethyl)(methyl)carbamoyl]amino}azetidin-1-yl)phenyl]-5-ethyl-2-oxo-1,2-dihydropyridine-3-carboxylic acid] | 1 to 3.5 (≈ 2.33 to 8.17 µM) | 12.5 to 150 (≈ 29.2 to 350 µM) | 12.5 to 150 (≈ 29.2 to 350 µM) | 12.5 to 150 (≈ 29.2 to 350 µM) | 
11 | CCc1cc(C(=O)O)c(=O)[nH]c1-c1ccc(N2CC(n3nnc(C)n3)C2)cc1 [Cpd 168, 5-ethyl-6-{4-[3-(5-methyl-2H-tetrazol-2-yl)azetidin-1-yl]phenyl}-2-oxo-1,2-dihydropyridine-3-carboxylic acid] | < 1 | 12.5 to 150 (≈ 32.9 to 394 µM) | 12.5 to 150 (≈ 32.9 to 394 µM) | 12.5 to 150 (≈ 32.9 to 394 µM) | 
